Experimental findings from patent publication US20240101528A1, “SUBSTITUTED PYRAZOLO PIPERIDINE CARBOXYLIC ACIDS” (BAYER AKTIENGESELLSCHAFT, priority 2020, published 2024) are described below.

The nature of series [1]: Pharmacokinetic parameters following intravenous administration in rats. The class given is in vivo, male Wistar rats. The protocol:
(§1) B-5. Determination of Pharmacokinetic Parameters Following Intravenous and Oral Administration
(§2) The pharmacokinetic parameters of the compounds according to the invention were determined in male Wistar rats and/or in female beagles and/or in cynomolgus monkeys and/or in male CD-1 mice. Intravenous administration in the case of mice and rats was carried out by means of a species-specific plasma/DMSO formulation, and in the case of dogs and monkeys by means of a water/PEG400/ethanol formulation. In all species, oral administration of the dissolved substance was performed via gavage, based on a water/PEG400/ethanol formulation.
(§3) An internal standard (which may also be a chemically unrelated substance) was added to the samples of the compounds of the invention, calibration samples and qualifiers, and there followed protein precipitation by means of acetonitrile in excess. Addition of a buffer solution matched to the LC conditions, and subsequent vortexing, was followed by centrifugation at 1000 g. The supernatant was analysed by LC-MS/MS using C18 reversed-phase columns and variable mobile phase mixtures. The substances were quantified via the peak heights or areas from extracted ion chromatograms of specific selected ion monitoring experiments.
(§4) The plasma concentration/time plots determined were used to calculate the pharmacokinetic parameters such as AUC, Cmax, t1/2 (terminal half-life), F (bioavailability), MRT (mean residence time) and CL (clearance), by means of a validated pharmacokinetic calculation program.
(§5) Since the substance quantification was performed in plasma, it was necessary to determine the blood/plasma distribution of the substance in order to be able to adjust the pharmacokinetic parameters correspondingly. For this purpose, a defined amount of substance was incubated in K3 EDTA whole blood of the species in question in a rocking roller mixer for 20 min. After centrifugation at 1000 g, the plasma concentration was measured (by means of LC-MS/MS; see above) and determined by calculating the ratio of the Cblood/Cplasma value.

Series [2] deals with T1, recombinant guanylate cyclase reporter cell line (Rattus norvegicus, UniProt P20595).
T1 construct: expressed in transfected cells
T1 sequence (P20595 1-619): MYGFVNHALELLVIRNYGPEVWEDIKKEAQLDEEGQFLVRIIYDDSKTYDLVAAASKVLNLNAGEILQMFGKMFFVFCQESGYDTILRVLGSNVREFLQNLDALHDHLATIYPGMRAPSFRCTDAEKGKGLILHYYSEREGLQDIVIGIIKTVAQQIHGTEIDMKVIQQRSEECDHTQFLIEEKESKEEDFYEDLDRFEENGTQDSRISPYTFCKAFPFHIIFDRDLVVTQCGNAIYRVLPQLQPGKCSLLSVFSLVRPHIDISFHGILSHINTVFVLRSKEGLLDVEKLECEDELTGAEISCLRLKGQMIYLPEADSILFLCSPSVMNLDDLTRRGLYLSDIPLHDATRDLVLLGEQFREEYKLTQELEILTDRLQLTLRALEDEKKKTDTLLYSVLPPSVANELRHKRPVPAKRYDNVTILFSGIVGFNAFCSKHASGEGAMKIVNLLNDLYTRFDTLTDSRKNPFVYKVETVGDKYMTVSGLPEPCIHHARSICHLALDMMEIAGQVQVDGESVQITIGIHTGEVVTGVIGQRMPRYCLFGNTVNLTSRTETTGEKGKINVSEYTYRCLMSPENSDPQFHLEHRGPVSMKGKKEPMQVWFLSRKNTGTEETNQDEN
T1 sequence (P19686 1-690 partner): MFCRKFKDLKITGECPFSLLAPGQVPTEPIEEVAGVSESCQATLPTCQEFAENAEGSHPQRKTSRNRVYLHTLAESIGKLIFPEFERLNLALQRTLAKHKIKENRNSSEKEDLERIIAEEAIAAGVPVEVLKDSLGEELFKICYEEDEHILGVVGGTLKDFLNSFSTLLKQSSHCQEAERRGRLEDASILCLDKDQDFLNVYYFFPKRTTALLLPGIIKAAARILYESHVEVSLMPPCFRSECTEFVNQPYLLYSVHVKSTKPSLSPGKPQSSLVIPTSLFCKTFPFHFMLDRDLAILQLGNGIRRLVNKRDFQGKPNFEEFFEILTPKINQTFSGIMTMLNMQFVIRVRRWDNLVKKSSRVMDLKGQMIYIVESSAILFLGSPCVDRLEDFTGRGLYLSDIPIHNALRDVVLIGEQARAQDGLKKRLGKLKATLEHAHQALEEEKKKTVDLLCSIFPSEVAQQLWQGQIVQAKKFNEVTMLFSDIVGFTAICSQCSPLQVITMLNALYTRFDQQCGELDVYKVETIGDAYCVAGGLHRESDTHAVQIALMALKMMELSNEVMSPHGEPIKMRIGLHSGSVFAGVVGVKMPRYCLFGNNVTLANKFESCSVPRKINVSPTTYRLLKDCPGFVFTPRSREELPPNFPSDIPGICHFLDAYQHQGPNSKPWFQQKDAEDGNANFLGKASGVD
The series is described as follows: Effect on a recombinant guanylate cyclase reporter cell line. The class given is cell-based. Conditions: for MEC: minimum effective concentration. As to the method: B-1. Effect on a Recombinant Guanylate Cyclase Reporter Cell Line
The cellular activity of the compounds according to the invention was determined using a recombinant guanylate cyclase reporter cell line, as described in F. Wunder et al., Anal. Biochem. 339, 104-112 (2005).

A short description of series [3]: Pharmacokinetic parameters following oral administration in rats. Conditions: for F: bioavailability. The class given is in vivo, male Wistar rats. As to the method: as §1, §2, §3, §4, §5

Where a name gives a salt, the structure may show the parent alone.

For `O=C(O)c1cnn(C2CCCN(c3cc(Cl)ccc3-c3ccc(N4CCN(CC(F)(F)F)CC4)cc3)C2)c1C(F)F` (single isomer, unassigned; enantiomer 1) [Example 20, 1-[1-[5-Chloro-2-[4-[4-(2,2,2-trifluoroethyl)piperazin-1-yl]phenyl]phenyl]-3-piperidyl]-5-(difluoromethyl)pyrazole-4-carboxylic acid (Enantiomer 1)], in series [1] (after i.v. application), the “Half live in comparison to example 174 in WO 2012/058132” value is “longer” and the “mean residence time (MRT) in comparison to example 174 in WO 2012/058132” value is reported as “longer”. In series [1] (intravenous administration), this molecule came in with an AUCnorm of 2.29 kg·h/L. In series [2], the MEC is given as 1.6 nM. In series [3], this molecule displayed an AUCnorm of 2.11 kg·h/L and an F of 91.7%.

Take `CCCN1CCN(c2ccc(-c3ccc(Cl)cc3N3CCCC(n4ncc(C(=O)O)c4C(F)F)C3)cc2)CC1` (single isomer, unassigned; enantiomer 2) [Example 5, 1-{1-[4-Chloro-4′-(4-propylpiperazin-1-yl)[biphenyl]-2-yl]piperidin-3-yl}-5-(difluoromethyl)-1H-pyrazole-4-carboxylic acid hydrochloride (Enantiomer 2)]: in series [1] (intravenous administration), the AUCnorm was 1.40 kg·h/L. The MEC in series [2] came out at 0.3 nM. In series [3], this molecule registered an AUCnorm of 0.84 kg·h/L and an F of 59.9%.

Regarding `O=C(O)c1cnn(C2CCCN(c3cc(Cl)ccc3-c3ccc(N4CCN(CC5CC5)CC4)cc3)C2)c1C(F)F` (single isomer, unassigned; enantiomer 2) [Example 11, 1-(1-{4-Chloro-4′-[4-(cyclopropylmethyl)piperazin-1-yl] [biphenyl]-2-yl}piperidin-3-yl)-5-(difluoromethyl)-1H-pyrazole-4-carboxylic acid hydrochloride (Enantiomer 2)], the AUCnorm in series [1] (intravenous administration) came out at 1.23 kg·h/L; in series [3], 0.70 kg·h/L. In series [2], the MEC is reported as <0.3 nM. This molecule also came in with a F in series [3] of 58.2%.

Take `O=C(O)c1cnn(C2CCCN(c3cc(Cl)ccc3-c3ccc(N4CCN(CC(F)F)CC4)cc3)C2)c1C(F)F` (single isomer, unassigned; enantiomer 2) [Example 19, 1-[1-{4-Chloro-4′-[4-(2,2-difluoroethyl)piperazin-1-yl][biphenyl]-2-yl}piperidin-3-yl]-5-(difluoromethyl)-1H-pyrazole-4-carboxylic acid hydrochloride (Enantiomer 2)]: the AUCnorm in series [1] (intravenous administration) is 3.09 kg·h/L; in series [3], 0.25 kg·h/L. Moreover, the MRT (commonly a mean duration of stay, worked out from the concentration-time curve) in series [1] (male, Wistar, rat, plasma, intravenous administration) is 5.66 h; in series [3] (male, Wistar, rat, plasma, read-out: MRT) it was 7.46 h. Also, the clearance in series [1] (male, Wistar, rat, plasma, intravenous administration, read-out: CLplasma (converted)) was 5.33 mL/min/kg. Also, the half-life was 4.24 h in series [1] (male, Wistar, rat, plasma, intravenous administration, read-out: t½ (converted)) and 4.65 h in series [3] (male, Wistar, rat, plasma, read-out: t½ (converted)). The EC50 – broadly, the concentration giving half of the maximal effect – in series [2] (half maximal effective concentration) amounted to 1.9 nM. The MEC in series [2] worked out at 0.3 nM. The molecule also returned a F in series [3] of 8.01%.

With `O=C(O)c1cnn(C2CCCN(c3cc(Cl)ccc3-c3ccc(N4CCN(CC(F)(F)F)CC4)cc3)C2)c1C(F)F` (single isomer, unassigned; enantiomer 2) [Example 21, 1-[1-[5-Chloro-2-[4-[4-(2,2,2-trifluoroethyl)piperazin-1-yl]phenyl]phenyl]-3-piperidyl]-5-(difluoromethyl)pyrazole-4-carboxylic acid (Enantiomer 2)], the AUCnorm in series [1] (intravenous administration) stood at 7.23 kg·h/L; in series [3], 4.04 kg·h/L. Moreover, in series [2], the MEC came to 1.6 nM. Also, the F in series [3] came to 56.1%.

With `O=C(O)c1cnn(-c2cccc(-c3cc(Cl)ccc3-c3ccc(N4CCN(CC5CC5)CC4)cc3)n2)c1C(F)(F)F` [174 (WO2012/058132), reference compound], the AUCnorm in series [1] (intravenous administration) stood at 0.77 kg·h/L. For the same molecule, in series [3], the AUCnorm is 0.63 kg·h/L, the MRT came to 8.41 h and the F turned out to be 81.8%.
